# Experimental data as given in ChEMBL document CHEMBL3745637, “New hybrid molecules with anticonvulsant and antinociceptive activity derived from 3-methyl- or 3,3-dimethyl-1-[1-oxo-1-(4-phenylpiperazin-1-yl)propan-2-yl]pyrrolidine-2,5-diones” (Bioorg Med Chem, 2016).
# Active and inactive are the calls of the source. The calls are words filed in the database; no cut-off is given here.
# How the values were obtained:
# [1] = Protective index, ratio of TD50 for neurotoxicity in ip dosed Swiss mouse to ED50 for anticonvulsant activity in ip dosed MES Swiss mouse model at 0.25 hrs; assay type: toxicity, organism-based; conditions: in vivo, read-out: Ratio TD50/ED50
# [2] = Protective index, ratio of TD50 for neurotoxicity in ip dosed Swiss mouse to ED50 for anticonvulsant activity in ip dosed Swiss mouse 6 Hz psychomotor seizure model at 0.25 hrs; assay type: toxicity, organism-based; conditions: in vivo, read-out: Ratio TD50/ED50
# [3] = Neurotoxicity in ip dosed Swiss mouse seizure model assessed as motor impairment pretreated for 0.25 hrs measured within 60 s by chimney test; assay type: toxicity, organism-based; conditions: in vivo
# Mus musculus [4] = test: Antinociceptive activity in ip dosed Swiss mouse assessed as reduction of formalin-induced licking at MES ED50 pretreated for 0.25 hrs measured during 20 to 25 mins; assay type: functional; set-up: scale not given: the % may be the effect or the level left
# Mus musculus [5] = test: Antinociceptive activity in ip dosed Swiss mouse assessed as reduction of formalin-induced licking at MES ED50 pretreated for 0.25 hrs measured during 15 to 20 mins; assay type: functional; set-up: scale not given: the % may be the effect or the level left
# Mus musculus [6] = test: Antinociceptive activity in ip dosed Swiss mouse assessed as reduction of formalin-induced licking at MES ED50 pretreated for 0.25 hrs measured during 1 to 5 mins; assay type: functional; set-up: scale not given: the % may be the effect or the level left
# Mus musculus [7] = test: Anticonvulsant activity in Swiss mouse assessed as protection against maximal electroshock-induced seizures at 300 mg/kg, ip pretreated for 0.25 hrs; assay type: functional, organism-based
# Mus musculus [8] = test: Anticonvulsant activity in Swiss mouse assessed as protection against maximal electroshock-induced seizures at 300 mg/kg, ip pretreated for 0.5 hrs; assay type: functional, organism-based
# Mus musculus [9] = test: Anticonvulsant activity in Swiss mouse assessed as protection against maximal electroshock-induced seizures at 300 mg/kg, ip pretreated for 1 hr; assay type: functional, organism-based
# Mus musculus [10] = test: Anticonvulsant activity in Swiss mouse assessed as protection against maximal electroshock-induced seizures at 300 mg/kg, ip pretreated for 2 hrs; assay type: functional, organism-based
# Mus musculus [11] = test: Anticonvulsant activity in Swiss mouse assessed as protection against maximal electroshock-induced seizures at 100 mg/kg, ip pretreated for 0.25 hrs; assay type: functional, organism-based
# Mus musculus [12] = test: Anticonvulsant activity in Swiss mouse assessed as protection against maximal electroshock-induced seizures at 100 mg/kg, ip pretreated for 2 hrs; assay type: functional, organism-based
# Mus musculus [13] = test: Anticonvulsant activity in Swiss mouse assessed as reduction in clonic seizures at 100 mg/kg, ip pretreated for 0.25 hrs measured after 30 mins by subcutaneous pentylenetetrazole seizure test; assay type: functional, organism-based
# Mus musculus [14] = test: Anticonvulsant activity in Swiss mouse assessed as reduction in clonic seizures at 100 mg/kg, ip pretreated for 2 hrs measured after 30 mins by subcutaneous pentylenetetrazole seizure test; assay type: functional, organism-based
# Mus musculus [15] = test: Anticonvulsant activity against ip dosed Swiss mouse seizure model assessed as protection at 0.25 hrs by 6 Hz psychomotor seizure test; assay type: functional
# Mus musculus [16] = test: Anticonvulsant activity in ip dosed Swiss mouse assessed as protection against maximal electroshock-induced seizures at 0.25 hrs; assay type: functional
# Mus musculus [17] = test: Antinociceptive activity in ip dosed Swiss mouse assessed as reduction of formalin-induced licking at MES ED50 pretreated for 0.25 hrs measured during 25 to 30 mins; assay type: functional; set-up: scale not given: the % may be the effect or the level left
# Mus musculus [18] = test: Antinociceptive activity in ip dosed Swiss mouse assessed as reduction of formalin-induced licking at MES ED50 pretreated for 0.25 hrs measured during 15 to 30 mins; assay type: functional, organism-based
# Mus musculus [19] = test: Anticonvulsant activity against Swiss mouse seizure model assessed as protection at 100 mg/kg, ip pretreated for 0.25 hrs by 6 Hz psychomotor seizure test; assay type: functional, organism-based
# Mus musculus [20] = test: Anticonvulsant activity in ip dosed Swiss mouse assessed as reduction in clonic seizures at 0.5 hrs by subcutaneous pentylenetetrazole seizure test; assay type: functional
# [21] = Protective index, ratio of TD50 for neurotoxicity in ip dosed Swiss mouse to ED50 for anticonvulsant activity in ip dosed scPTZ Swiss mouse model at 0.25 hrs; assay type: toxicity, organism-based; conditions: in vivo, read-out: Ratio TD50/ED50
# Mus musculus [22] = test: Anticonvulsant activity in ip dosed Swiss mouse assessed as protection against maximal electroshock-induced seizures at 0.5 hrs; assay type: functional
# [23] = Protective index, ratio of TD50 for neurotoxicity in ip dosed Swiss mouse to ED50 for anticonvulsant activity in ip dosed Swiss mouse 6 Hz psychomotor seizure model at 0.5 hrs; assay type: toxicity, organism-based; conditions: in vivo, read-out: Ratio TD50/ED50
# Mus musculus [24] = test: Anticonvulsant activity in Swiss mouse assessed as reduction in clonic seizures at 100 mg/kg, ip pretreated for 1 hr measured after 30 mins by subcutaneous pentylenetetrazole seizure test; assay type: functional, organism-based
# Mus musculus [25] = test: Anticonvulsant activity against Swiss mouse seizure model assessed as protection at 100 mg/kg, ip pretreated for 0.5 hrs by 6 Hz psychomotor seizure test; assay type: functional, organism-based
# Mus musculus [26] = test: Anticonvulsant activity in ip dosed Swiss mouse assessed as prolong latency to first seizure episode pretreated for 0.25 hrs measured after 30 mins by subcutaneous pentylenetetrazole seizure test; assay type: functional, organism-based
# Mus musculus [27] = test: Anticonvulsant activity in ip dosed Swiss mouse assessed as reduction in clonic seizures at 0.25 hrs by subcutaneous pentylenetetrazole seizure test; assay type: functional
# Mus musculus [28] = test: Anticonvulsant activity against ip dosed Swiss mouse seizure model assessed as protection at 0.5 hrs by 6 Hz psychomotor seizure test; assay type: functional
# [29] = Neurotoxicity in ip dosed Swiss mouse seizure model assessed as motor impairment pretreated for 0.5 hrs measured within 60 s by chimney test; assay type: toxicity, organism-based; conditions: in vivo
# [30] = Protective index, ratio of TD50 for neurotoxicity in ip dosed Swiss mouse to ED50 for anticonvulsant activity in ip dosed MES Swiss mouse model at 0.5 hrs; assay type: toxicity, organism-based; conditions: in vivo, read-out: Ratio TD50/ED50
# [31] = Protective index, ratio of TD50 for neurotoxicity in ip dosed Swiss mouse to ED50 for anticonvulsant activity in ip dosed scPTZ Swiss mouse model at 0.5 hrs; assay type: toxicity, organism-based; conditions: in vivo, read-out: Ratio TD50/ED50
# Mus musculus [32] = test: Anticonvulsant activity in Swiss mouse assessed as reduction in clonic seizures at 100 mg/kg, ip pretreated for 0.5 hrs measured after 30 mins by subcutaneous pentylenetetrazole seizure test; assay type: functional, organism-based
# Rattus norvegicus = species: Rattus norvegicus; test: Displacement of [3H]nitrendipine from calcium channel L-Type dihydropyridine site in rat cerebral cortex at 100 uM after 120 mins by scintillation counting method; assay type: tissue-based
# Mus musculus [33] = test: Toxicity in Swiss mouse assessed as death at 300 mg/kg, ip measured after 0.25 hrs; assay type: organism-based; conditions: in vivo
# Mus musculus [34] = test: Anticonvulsant activity in ip dosed Swiss mouse assessed as protection against maximal electroshock-induced seizures at 1 hr; assay type: functional
# Mus musculus [35] = test: Anticonvulsant activity in ip dosed Swiss mouse assessed as reduction in clonic seizures at 1 hr by subcutaneous pentylenetetrazole seizure test; assay type: functional
# [36] = Neurotoxicity in ip dosed Swiss mouse seizure model assessed as motor impairment pretreated for 1 hr measured within 60 s by chimney test; assay type: toxicity, organism-based; conditions: in vivo
# [37] = Protective index, ratio of TD50 for neurotoxicity in ip dosed Swiss mouse to ED50 for anticonvulsant activity in ip dosed Swiss mouse 6 Hz psychomotor seizure model at 1 hr; assay type: toxicity, organism-based; conditions: in vivo, read-out: Ratio TD50/ED50
# Mus musculus [38] = test: Anticonvulsant activity in Swiss mouse assessed as prolong latency to first seizure episode at 250 mg/kg pretreated for 0.5 hrs measured after 30 mins by subcutaneous pentylenetetrazole seizure test; assay type: functional, organism-based
# Mus musculus [39] = test: Anticonvulsant activity in Swiss mouse assessed as prolong latency to first seizure episode at 120 mg/kg pretreated for 0.25 hrs measured after 30 mins by subcutaneous pentylenetetrazole seizure test; assay type: functional, organism-based
compound,measurement,setting,value
CC(C(=O)N1CCN(c2cccc(C(F)(F)F)c2)CC1)N1C(=O)CC(C)(C)C1=O (stereo unspecified),selectivity ratio at 0.25 h,[1],3.73
same,selectivity ratio at 0.25 h,[2],14.7
same,TD50 at 0.25 h,[3],425 mg/kg
same,Activity,Mus musculus [4],93%
same,Activity,Mus musculus [5],96%
same,Activity,Mus musculus [6],56%
same,Activity,Mus musculus [7],Active
same,Activity,Mus musculus [8],Active
same,Activity,Mus musculus [9],Active
same,Activity,Mus musculus [10],Active
same,Activity,Mus musculus [11],Active
same,Activity,Mus musculus [12],inactive
same,Activity,Mus musculus [13],inactive
same,Activity,Mus musculus [14],inactive
same,ED50,Mus musculus [15],29 mg/kg
same,ED50,Mus musculus [16],114 mg/kg
same,Activity,Mus musculus [17],98%
same,Activity,Mus musculus [18],Active
CC1CC(=O)N(C(C)C(=O)N2CCN(c3cccc(Cl)c3)CC2)C1=O (stereo unspecified),Activity,Mus musculus [19],Active
same,ED50,Mus musculus [20],121 mg/kg
same,selectivity ratio at 0.25 h,[1],2.91
same,selectivity ratio at 0.25 h,[21],2.3
same,selectivity ratio at 0.25 h,[2],19.2
same,ED50,Mus musculus [22],98.5 mg/kg
same,TD50 at 0.25 h,[3],261 mg/kg
same,Activity,Mus musculus [4],88%
same,Activity,Mus musculus [5],74%
same,Activity,Mus musculus [6],45%
same,selectivity ratio at 0.5 h,[23],11.1
same,Activity,Mus musculus [7],Active
same,Activity,Mus musculus [8],Active
same,Activity,Mus musculus [11],Active
same,Activity,Mus musculus [12],inactive
same,Activity,Mus musculus [24],inactive
same,Activity,Mus musculus [14],inactive
same,Activity,Mus musculus [25],Active
same,Activity,Mus musculus [26],Dose-dependent effect
same,ED50,Mus musculus [15],13.6 mg/kg
same,ED50,Mus musculus [16],89.7 mg/kg
same,ED50,Mus musculus [27],114 mg/kg
same,ED50,Mus musculus [28],24.4 mg/kg
same,TD50 at 0.5 h,[29],270 mg/kg
same,selectivity ratio at 0.5 h,[30],2.74
same,selectivity ratio at 0.5 h,[31],2.23
CCC(C(=O)N1CCN(c2cccc(C(F)(F)F)c2)CC1)N1C(=O)CC(C)C1=O (stereo unspecified),Activity,Mus musculus [19],Active
same,ED50,Mus musculus [20],> 130 mg/kg
same,selectivity ratio at 0.25 h,[1],2.19
same,selectivity ratio at 0.25 h,[21],1.51
same,selectivity ratio at 0.25 h,[2],5.42
same,ED50,Mus musculus [22],75.7 mg/kg
same,TD50 at 0.25 h,[3],164 mg/kg
same,Activity,Mus musculus [4],57%
same,Activity,Mus musculus [5],94%
same,Activity,Mus musculus [6],inactive
same,selectivity ratio at 0.5 h,[23],4.12
same,Activity,Mus musculus [7],Active
same,Activity,Mus musculus [32],inactive
same,Activity,Mus musculus [24],inactive
same,Activity,Mus musculus [14],inactive
same,Activity,Mus musculus [25],Active
same,Activity,Mus musculus [26],Dose-dependent effect
same,ED50,Mus musculus [15],30.3 mg/kg
same,ED50,Mus musculus [16],75.1 mg/kg
same,ED50,Mus musculus [27],108 mg/kg
same,ED50,Mus musculus [28],41.2 mg/kg
same,TD50 at 0.5 h,[29],170 mg/kg
same,selectivity ratio at 0.5 h,[30],2.24
CC1(C)O[C@@H]2[C@@H](CO[C@@]3(COS(N)(=O)=O)OC(C)(C)O[C@@H]23)O1,inhibition,Rattus norvegicus,7.9%
CC1CC(=O)N(C(C)C(=O)N2CCN(c3ccc(C(F)(F)F)cc3)CC2)C1=O (stereo unspecified),Activity,Mus musculus [7],inactive
same,Activity,Mus musculus [33],Toxic
CC[C@@H](C(N)=O)N1CCCC1=O [LEVETIRACETAM],ED50,Mus musculus [34],> 500 mg/kg
same,ED50,Mus musculus [35],> 500 mg/kg
same,TD50 at 1 h,[36],> 500 mg/kg
same,selectivity ratio at 1 h,[37],> 33.8
CCCC(CCC)C(=O)O,Activity,Mus musculus [38],Active
CCC1(C)CC(=O)NC1=O (stereo unspecified) [ETHOSUXIMIDE],selectivity ratio at 0.25 h,[21],4.89
same,Activity,Mus musculus [39],Active
same,ED50,Mus musculus [15],> 200 mg/kg
same,ED50,Mus musculus [16],> 500 mg/kg
CC(C(=O)N1CCN(c2ccc(C(F)(F)F)cc2)CC1)N1C(=O)CC(C)(C)C1=O (stereo unspecified),Activity,Mus musculus [7],inactive
same,Activity,Mus musculus [33],Toxic
